Structures can show the parent of a compound that is named as a salt. Where two headings read alike, the source gives them in different places.
Molecular target: T1, GK (glucokinase, residues 12-465) (Homo sapiens, UniProt P35557)
T1 construct: I.D. No. 1 corresponds to residues 12-465 of glucokinase; made in house; host or cells: DH10b-T1r E. coli
T1 sequence (P35557 with tags, fused parts or gaps isoform P35557-2): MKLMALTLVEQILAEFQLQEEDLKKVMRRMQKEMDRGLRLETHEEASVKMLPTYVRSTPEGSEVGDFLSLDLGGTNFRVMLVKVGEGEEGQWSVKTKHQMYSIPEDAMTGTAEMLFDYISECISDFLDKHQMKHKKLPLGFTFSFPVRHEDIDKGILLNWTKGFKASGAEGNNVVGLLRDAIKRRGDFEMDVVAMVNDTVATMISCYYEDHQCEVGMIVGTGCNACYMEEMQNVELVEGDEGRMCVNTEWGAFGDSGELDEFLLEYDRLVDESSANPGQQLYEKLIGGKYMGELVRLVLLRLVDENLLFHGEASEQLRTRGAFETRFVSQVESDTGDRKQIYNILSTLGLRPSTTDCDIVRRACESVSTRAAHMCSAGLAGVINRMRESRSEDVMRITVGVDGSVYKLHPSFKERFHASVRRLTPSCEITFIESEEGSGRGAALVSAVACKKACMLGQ
Experiment: enzymatic glucokinase activity assay (ATP consumption, KinaseGlo luminescence)
Type: biochemical
Settings: 5 μM ATP, 5 mM Glucose, reported as bins; for EC50: read-out: pKact
From the text: The activity of compounds as glucokinase activators may be assayed in vitro, in vivo or in a cell line. Provided below is an enzymatic glucokinase activity assay.
Purified glucokinase may be obtained as follows. […] SEQ.
The expression of recombinant glucokinase protein may be carried out by transformation and growth of DH10b-T1r E. coli cells incorporating the (pFLAG-CTC) plasmid in LB media. Protein expression can be induced in this system by the addition of IPTG to the culture medium.
Recombinant protein may be isolated from cellular extracts by passage over Sepharose Q Fast Flow resin (Pharmacia). This partially purified GK extract may then be further purified by a second passage over Poros HQ10 (Applied Biosystems). The purity of GK may be determined on denaturing SDS-PAGE gel. Purified GK may then be concentrated to a final concentration of 20.0 mg/ml. After flash freezing in liquid nitrogen, the proteins can be stored at −78° C. in a buffer containing 25 mM TRIS-HCl pH 7.6, 50 mM NaCl, and 0.5 mM TCEP.
The activation properties of compounds for GK may be determined using a black 384-well-plate format under the following reaction conditions: 25 mM Hepes pH 7.2, 25 mM NaCl, 10 mM MgCl2, 0.01% Brij35, 1 mM DTT, 5 μM ATP, 5 mM Glucose 2% DMSO. The amount of ATP consumed may be determined quantitatively by addition of equal volume of luciferase reagent (luciferase+beetle luciferin—KinaseGlo Luminescent Kinase Assay kit from Promega). The luminescence intensity may be measured by using the Analyst HT from LJL Biosystems.
The reaction mixture may then be incubated at room temperature for 60 min, and quenched and developed by addition of 10 μL of luciferase reagent. Luminescence intensities of the resulting reaction mixtures may be measured after a 10 min incubation at room temperature. The luminescence intensity may be measured by using the Analyst HT from LJL Biosystems.
pKact and % ACTmax values may be calculated by non-linear curve fitting of the compound concentrations and luminescence intensities to a standard inhibition/activation equation.

[1] = Kact = concentration that displays 50% of the maximal increase in GK activity, 60 min, room temperature
[2] = calculated maximal gain in GK enzyme activity at a saturating concentration of the compound, read-out: % ACTmax
[3] = read-out: % ACTmax, calculated maximal gain in GK enzyme activity at a saturating concentration of the compound
[4] = calculated maximal gain in GK enzyme activity at a saturating concentration of the compound

| Structure (SMILES) | EC50 [1] [µM] | Emax [2] [%] | Emax [3] [%] | % ACTmax [4] | pKact [1] |
| --- | --- | --- | --- | --- | --- |
| O=C(Nc1cnccn1)C(CC1CCOCC1)n1ncc2c(S(=O)(=O)C3CC3)cncc21 (centres unmarked) [20 (Free Base), 2-(4-(cyclopropylsulfonyl)-1H-pyrazolo[3,4-c]pyridin-1-yl)-N-(pyrazin-2-yl)-3-(tetrahydro-2H-pyran-4-yl)propanamide] | 0.398 to 1.26 | – | 101 to 105 | – | – |
| O=C(Nc1cnccn1)C(CC1CCOCC1)n1ncc2c(S(=O)(=O)C3CC3)cncc21 (centres unmarked) [20 (TFA Salt), 2-(4-(cyclopropylsulfonyl)-1H-pyrazolo[3,4-c]pyridin-1-yl)-N-(pyrazin-2-yl)-3-(tetrahydro-2H-pyran-4-yl)propanamide] | 1.58 to 3.16 | – | – | 106-110% | – |
| COc1ccc2nc(NC(=O)C(CC3CCOCC3)n3ccc(S(=O)(=O)C4CC4)n3)sc2n1 (centres unmarked) [Compound 1, 2-(3-(cyclopropylsulfonyl)-1H-pyrazol-1-yl)-N-(5-methoxythiazolo[5,4-b]pyridin-2-yl)-3-(tetrahydro-2H-pyran-4-yl)propanamide] | ≥ 15.8 | – | ≤ 90 | – | – |
| O=C(Nc1ncc(Cl)s1)C(CC1CCOCC1)n1cc(S(=O)(=O)C2CC2)cn1 (centres unmarked) [Compound 4, N-(5-chlorothiazol-2-yl)-2-(4-(cyclopropylsulfonyl)-1H-pyrazol-1-yl)-3-(tetrahydro-2H-pyran-4-yl)propanamide] | 3.98 to 12.6 | – | 101 to 105 | – | – |
| O=C(Nc1ncc(Cl)s1)C(CC1CCOCC1)n1cc(S(=O)(=O)C2CCCC2)cn1 (centres unmarked) [Compound 5, N-(5-chlorothiazol-2-yl)-2-(4-(cyclopentylsulfonyl)-1H-pyrazol-1-yl)-3-(tetrahydro-2H-pyran-4-yl)propanamide] | 0.398 to 1.26 | – | ≥ 111 | – | – |
| O=C(NC1CC1)c1nn(C(CC2CCOCC2)C(=O)Nc2ncc(Cl)s2)cc1Cl (centres unmarked) [Compound 8, 4-chloro-1-(1-(5-chlorothiazol-2-ylamino)-1-oxo-3-(tetrahydro-2H-pyran-4-yl)propan-2-yl)-N-cyclopropyl-1H-pyrazole-3-carboxamide] | 3.98 to 12.6 | – | ≤ 90 | – | – |
| O=C(Nc1ncc(Cl)s1)C(CC1CCOCC1)n1cc(NS(=O)(=O)C2CC2)cn1 (centres unmarked) [Compound 9, N-(5-chlorothiazol-2-yl)-2-(4-(cyclopropanesulfonamido)-1H-pyrazol-1-yl)-3-(tetrahydro-2H-pyran-4-yl)propanamide] | 3.98 to 12.6 | – | ≤ 90 | – | – |
| O=C(Nc1ncc(F)s1)C(CC1CCOCC1)n1ncc2c(S(=O)(=O)C3CC3)cncc21 (centres unmarked) [Compound 13, 2-(4-(cyclopropylsulfonyl)-1H-pyrazolo[3,4-c]pyridin-1-yl)-N-(5-fluorothiazol-2-yl)-3-(tetrahydro-2H-pyran-4-yl)propanamide] | ≤ 0.316 | – | 106 to 110 | – | – |
| NC(=O)c1ccc(NC(=O)C(CC2CCOCC2)n2ncc3c(S(=O)(=O)C4CC4)cccc32)nc1 (centres unmarked) [Compound 14, 6-(2-(4-(cyclopropylsulfonyl)-1H-indazol-1-yl)-3-(tetrahydro-2H-pyran-4-yl)propanamido)nicotinamide] | ≤ 0.316 | ≥ 111 | – | – | – |
| Nc1cc(S(=O)(=O)C2CC2)c2cnn(C(CC3CCOCC3)C(=O)Nc3ncc(F)s3)c2n1 (centres unmarked) [Compound 16, 2-(6-amino-4-(cyclopropylsulfonyl)-1H-pyrazolo[3,4-b]pyridin-1-yl)-N-(5-fluorothiazol-2-yl)-3-(tetrahydro-2H-pyran-4-yl)propanamide] | ≤ 0.316 | – | 106 to 110 | – | – |
| O=C(Nc1ncc(F)s1)C(CC1CCOCC1)n1ncc2c(S(=O)(=O)C3CC3)ccc(Cl)c21 (centres unmarked) [Compound 23, 2-(7-chloro-4-(cyclopropylsulfonyl)-1H-indazol-1-yl)-N-(5-flourothiazol-2-yl)-3-(tetrahydro-2H-pyran-4-yl)propanamide] | – | – | – | ≧111% | ≧6.5 |

Second part, led by results:

| EC50 [1] [µM] | Emax [2] [%] | Structure (SMILES) | Emax [3] [%] | % ACTmax [4] | pKact [1] |
| --- | --- | --- | --- | --- | --- |
| 1.58 to 3.16 | ≥ 111 | O=C(Nc1ncc(Cl)s1)C(CC1CCOCC1)n1ncc2cc(S(=O)(=O)C3CC3)ccc21 (racemic) [Compound 10, N-(5-chlorothiazol-2-yl)-2-(5-(cyclopropylsulfonyl)-1H-indazol-1-yl)-3-(tetrahydro-2H-pyran-4-yl)propanamide] | – | – | – |
| 0.398 to 1.26 | 90 to 100 | COc1ccc2c(cnn2C(CC2CCOCC2)C(=O)Nc2ccn(C)n2)c1S(=O)(=O)C1CC1 (racemic) [Compound 15, 2-(4-(cyclopropylsulfonyl)-5-methoxy-1H-indazol-1-yl)-N-(1-methyl-1H-pyrazol-3-yl)-3-(tetrahydro-2H-pyran-4-yl)propanamide] | – | – | – |
| 1.58 to 3.16 | ≥ 111 | O=C(Nc1ncc(F)s1)[C@@H](CC1CCOCC1)n1cc(S(=O)(=O)C2CCCC2)cn1 (single isomer, unassigned) [Compound 37, 2-(4-(cyclopentylsulfonyl)-1H-pyrazol-1-yl)-N-(5-fluorothiazol-2-yl)-3-(tetrahydro-2H-pyran-4-yl)propanamide] | – | – | – |
| ≥ 15.8 | ≤ 90 | COc1ccc2nc(NC(=O)[C@H](CC3CCOCC3)n3ccc(S(=O)(=O)C4CC4)n3)sc2n1 [Compound 2, (S)-2-(3-(cyclopropylsulfonyl)-1H-pyrazol-1-yl)-N-(5-methoxythiazolo[5,4-b]pyridin-2-yl)-3-(tetrahydro-2H-pyran-4-yl)propanamide] | – | – | – |
| ≥ 15.8 | ≤ 90 | COc1ccc2nc(NC(=O)[C@@H](CC3CCOCC3)n3ccc(S(=O)(=O)C4CC4)n3)sc2n1 [Compound 3, (R)-2-(3-(cyclopropylsulfonyl)-1H-pyrazol-1-yl)-N-(5-methoxythiazolo[5,4-b]pyridin-2-yl)-3-(tetrahydro-2H-pyran-4-yl)propanamide] | – | – | – |
| 3.98 to 12.6 | ≥ 111 | COC(=O)c1cnc(NC(=O)C(CC2CCCC2)n2cc(S(=O)(=O)C3CC3)cn2)s1 (centres unmarked) [Compound 6, Methyl 2-(3-cyclopentyl-2-(4-(cyclopropylsulfonyl)-1H-pyrazol-1-yl)propanamido)thiazole-5-carboxylate] | – | – | – |
| 3.98 to 12.6 | ≤ 90 | O=C(O)c1cnc(NC(=O)C(CC2CCCC2)n2cc(S(=O)(=O)C3CC3)cn2)s1 (centres unmarked) [Compound 7, 2-(3-cyclopentyl-2-(4-(cyclopropylsulfonyl)-1H-pyrazol-1-yl)propanamido)thiazole-5-carboxylic Acid] | – | – | – |
| ≤ 0.316 | 101 to 105 | O=C1CC[C@H](CC(C(=O)Nc2ncc(Cl)s2)n2ncc3c(S(=O)(=O)C4CC4)cccc32)C1 (stereo partly drawn) [Compound 11, N-(5-chlorothiazol-2-yl)-2-(4-(cyclopropylsulfonyl)-1H-indazol-1-yl)-3-((R)-3-oxocyclopentyl)propanamide] | – | – | – |
| 1.58 to 3.16 | ≤ 90 | Cn1ccc(NC(=O)C(CC2CCOCC2)n2ncc3c(S(=O)(=O)C4CC4)cc(OC(F)F)cc32)n1 (centres unmarked) [Compound 12, 2-(4-(cyclopropylsulfonyl)-6-(difluoromethoxy)-1H-indazol-1-yl)-N-(1-methyl-1H-pyrazol-3-yl)-3-(tetrahydro-2H-pyran-4-yl)propanamide] | – | – | – |
| ≤ 0.316 | ≤ 90 | Cn1ccc(NC(=O)C(CC2CCOCC2)n2ncc3c(S(=O)(=O)C4CC4)cc(C#N)cc32)n1 (centres unmarked) [Compound 19, 2-(6-cyano-4-(cyclopropylsulfonyl)-1H-indazol-1-yl)-N-(1-methyl-1H-pyrazol-3-yl)-3-(tetrahydro-2H-pyran-4-yl) propanamide] | – | – | – |
| ≤ 0.316 | ≥ 111 | O=C(Nc1ncc(F)s1)C(CC1CCOCC1)n1ncc2c(S(=O)(=O)C3CC3)c(Cl)ccc21 (centres unmarked) [Compound 22, 2-(5-chloro-4-(cyclopropylsulfonyl)-1H-indazol-1-yl)-N-(5-fluorothiazol-2-yl)-3-(tetrahydro-2H-pyran-4-yl)propanamide] | – | – | – |

— US8563730B2, “Pyrazole and fused pyrazole glucokinase activators” (Takeda San Diego, Inc., priority 2008, dated 2013)
